Reference: patent US20090085344A1, “Organic fluorescent sulfonyl ureido benzoxazinone pigments” (Honeywell International Inc., priority 2007, published 2009)

Tests used:
Assay type in all cases: physicochemical
[1] = Solubility of the powder in 2-butanone; conditions: room temperature
Protocol: (§1) In accordance with the present disclosure, 1-(para-toluenesulfonyl)-3-[2-(4-oxo-4H-benzo[d][1,3]oxazine-2-yl)-phenyl]urea, also named 1-(4-methylphenylsulfonyl)-3-[2-(4-oxo-4H-benzo[d][1,3]oxazine-2-yl)-phenyl]urea, where R^1, R^2, R^3 and R^4 are each hydrogen, and R^5 is 4-methylphenyl, was prepared according to the following procedure: A 250 mL three-neck bottle was charged at room temperature with anthranoylanthranilic acid (0.05 mol) and 100 mL methyl ethyl ketone. Para-toluenesulfonyl isocyanate (0.05 mol) was then added, with stirring, and the reaction mixture was heated under reflux at about 80° C. for about 4 hours. Thereafter, the resulting suspension was cooled to about 40° C., and acetic anhydride (40 mL) was added. The resulting mixture was heated for an additional 3 hours. After cooling to about 10° C., the precipitate was filtered under suction, washed with acetone, and dried at about 50° C. under atmospheric pressure to produce a white powder in about 70% -85% yield. The Emission (fluorescence) maximum of the resultant powder was 526 nm. The excitation maximum is/was 380 nm. […] Intensity of fluorescence of the powder was 350 cd/m^2, as measured with a Minolta luminance meter under 365 nm excitation. Solubility of the powder in 2-butanone was less than 0.5% at room temperature.

[2] = Lightfastness: relative intensities at 0 hours and after 104 hours (FIGS. 1 and 2); conditions: compared with Lumilux CD 397 and Lumilux CD 302
Protocol: FIG. 1 is a comparative bar graph of the lightfastness of 1-(para-toluenesulfonyl)-3-[2-(4-oxo-4H-benzo[d]-[1,3]oxazine-2-yl)-phenyl]urea (compound 7), as compared with aliphatic ureidobenzoxazinone (UBO)(compound 11), Nitril-AUBO (compound 33), Lumiluxg CD 397, and Lumilux® CD 302, by measuring relative intensities at 0 hours and after 104 hours.
FIG. 2 is a comparative bar graph of the percent (%) loss of intensity of lightfastness of 1-(para-toluenesulfonyl)-3-[2-(4-oxo-4H-benzo[d]-[1,3]oxazine-2-yl)-phenyl]urea (compound 7) relative to compound 11, compound 33, Lumilux® CD 397, and Lumilux® CD 302.
Referring now to the Figures, FIG. 1 illustrates a comparative bar graph of the intensity of lightfastness (in cd/m^2) of 1-(para-toluenesulfonyl)-3-[2-(4-oxo-4H-benzo[d]-[1,3]oxazine-2-yl)-phenyl]urea (compound 7), which is shown relative to various ureido benzoxazinone compounds (UBO), such as aliphatic UBO (compound 11), Nitril-AUBO (compound 33), and Lumilux® CD 397 and Lumilux® CD 302.
FIG. 2 is a comparative bar graph illustrating of the percent loss of intensity of lightfastness of 1-(para-toluenesulfonyl)-3-[2-(4-oxo-4H-benzo[d]-[1,3]oxazine-2-yl)-phenyl]urea (compound 7) compared with ureido benzoxazinone compounds (UBO) such as compound 11, compound 33, Lumilux® CD 397 and Lumiluxg CD 302.

[3] = Fluorescence emission and excitation maxima of the powder
From the text: The benzoxazinone compounds of the present disclosure are colorless, and fluoresce in the visible region. More specifically, the benzoxazinone compounds of the present disclosure produce a bright emission in a region from about 520 nm to about 540 nm wavelength when irradiated by UV light energy at about 366 nm wavelength. The benzoxazinone compounds have an excitation maximum at about 340 nm to about 420 nm wavelength.
as §1

[4] = Intensity of fluorescence of the powder, Minolta luminance meter under 365 nm excitation
Protocol: as §1

Compound | Solubility of the powder in 2-butanone [1] | degree (intensity) of lightfastness ([2]; 0 hours and after 104 hours) | loss of lightfastness intensity ([2]; after 104 hours) | Emission (fluorescence) maximum of the resultant powder [3] | excitation maximum [3] | Intensity of fluorescence of the powder [4]
Cc1ccc(S(=O)(=O)NC(=O)Nc2ccccc2-c2nc3ccccc3c(=O)o2)cc1 [Example 1, 1-(para-toluenesulfonyl)-3-[2-(4-oxo-4H-benzo[d]-[1,3]oxazine-2-yl)-phenyl]urea] | less than 0.5% | greater degree (intensity) of lightfastness | lower loss of lightfastness intensity | 526 nm | 380 nm | 350 cd/m^2
O=C(Nc1ccccc1-c1nc2ccccc2c(=O)o1)NS(=O)(=O)c1ccccc1 [Example 2, 1-(phenylsulfonyl)-3-[2-(4-oxo-4H-benzo[d]-[1,3]oxazine-2-yl)-phenyl]urea] | less than 0.5% | – | – | 528 nm | 380 nm | 320 cd/m^2
Cc1ccccc1S(=O)(=O)NC(=O)Nc1ccccc1-c1nc2ccccc2c(=O)o1 [Example 3, 1-(2-methylphenylsulfonyl)-3-[2-(4-oxo-4H-benzo[d]-[1,3]oxazine-2-yl)-phenyl]urea] | less than 1% | – | – | 530 nm | 380 nm | 260 cd/M^2
O=C(Nc1ccccc1-c1nc2ccccc2c(=O)o1)NS(=O)(=O)c1ccc(Cl)cc1 [Example 4, 1-(4-chlorophenylsulfonyl)-3-[2-(4-oxo-4H-benzo[d]-[1,3]oxazine-2-yl)-phenyl]urea] | less than 0.5% | – | – | 539 nm | 380 nm | 330 cd/m^2
